# Experimental data: article PMC6881066, “Non-sedating benzodiazepines cause paralysis and tissue damage in the parasitic blood fluke Schistosoma mansoni” (PLoS Neglected Tropical Diseases, 2019)
# “Also recorded” adds a separate entry of the source. Read-outs that look alike come from different tables or passages of the source.
# Legend:
# adult male S. mansoni [1] = test: Adult schistosome mobility assay (inhibition of movement); format: cell-based, Schistosoma mansoni; conditions: for IC50: Schistosoma mansoni, adult male worms cultured in compound overnight, movement relative to DMSO control; for Potency at evoking coiled, contractile paralysis / activity against parasites (in words): in vitro, concentration-response, Fig 2B & 2C
# [2] = target: mammalian GABAARs (central benzodiazepine binding site); test: [3H]flunitrazepam displacement binding assay, rat cerebral cortex membranes; conditions: rat brain membrane preparations, 0.4 nM radioligand, 60 min at 4°C
# Protocol: Binding assays for benzodiazepines against mammalian GABAARs were performed measuring displacement of [3H] flunitrazepam (0.4 nM) from crude brain membrane preparations. Rat cerebral cortex membrane homogenate (80 μg protein) was incubated with 0.4 nM [3H]-flunitrazepam in 50 mM Tris-HCl (pH 7.7), plus test compounds (screened at concentrations ranging from 0.1 nM to 10 μM), and non-specific binding was assessed by incubation with diazepam (3 μM). Following incubation for 60 min at 4°C, samples were vacuum filtered through glass fiber filters (GF/B, Packard) presoaked with 0.3% PEI and rinsed with ice-cold 50 mM Tris-HCl (Unifilter, Packard). Filters were dried and counted for radioactivity in a scintillation counter (Topcount, Packard). Ki values of test compounds were calculated by the Cheng-Prusoff equation.
# adult male S. mansoni [3] = test: In vitro screen / re-screen for coiled, contractile (curl) phenotype; format: cell-based, Schistosoma mansoni; conditions: for Worms showing curl phenotype: overnight
# S. japonicum = conditions: no reference given; cited from earlier work
# [4] = cited from earlier work
# S. mansoni tegument = test: Transmission electron microscopy of drug-treated worms (tegument damage); format: cell-based, Schistosoma mansoni
# Protocol: Adult worms were harvested and recovered as above. Fixation was carried out overnight at 4°C in 2.5% glutaraldehyde/2% paraformaldehyde in 0.1 M sodium cacodylate (pH 7.3). Worms were washed 3 × 10 minutes in 0.1 M sodium cacodylate and post-fixed for 2 hours on ice in reduced 1% osmium tetraoxide. Worms were then washed 2 × 10 minutes in distilled water and stained overnight at 4°C in alcoholic Uranyl Acetate. Worms were rinsed in distilled water, dehydrated in 50%, 75% and 95% MeOH, followed by successive 10 minute rinses in 100% MeOH and acetonitrile. Worms were incubated in a 1:1 mix of acetonitrile and epoxy resin for 1 hour prior to 2 × 1 hour incubations in epoxy resin. Worms were then cut transversely and embedded overnight in epoxy resin (60°C). Ultra-thin sections (70 nm) were cut onto bare 200-mesh copper grids and stained in aqueous lead citrate for 1 minute. Sections were imaged on a Hitachi H-600 electron microscope fitted with a Hamamatsu C4742-95 digital camera) operating at an accelerating voltage of 75 kV.
# Given the parasite-selectivity of imidazobenzodiazepines (Fig 3, blue) relative to MCLZ-like compounds (Fig 3, red), we investigated the effects of XliHeII-048, Xhe-II-048 and SH-I-055 on schistosome tissues in more detail. Specifically, we were interested in drug-evoked damage to the parasite tegument, which is a feature of many anti-schistosomal compounds [38]. Worms treated with DMSO vehicle control, MCLZ (5 μM) or various imidazobenzodiazepines (10 μM, based on effective concentrations determined in Fig 2) overnight were fixed and processed for imaging by transmission electron microcopy (TEM).
# (§1) Fig 4 Xhe-II-048 damages the schistosome tegument. (A) Transmission electron microscopy images of transverse sections of S. mansoni exposed to either DMSO control, MCLZ (5 μM) or various imidazobenzodiazepines (10 μM, 14 hours). Dorsal tegument is oriented to the top. Scale = 2 μm. Arrowed = vacuoles beneath the tegument apical membrane. (B) Movement of worms treated with DMSO, MCLZ, or TMS-acetylene imidazobenzodiazepine compounds (10 μM, 14 hours), and recovery at various timepoints (3 hours, 1 day) following drug washout.
# SmGluCl = tested on: SmGluCl; parameters: method as in PMID 24009509; conditions: cited from earlier work
# [5] = human clinical trials; cited from earlier work
# S. mansoni = test: Recovery of worm movement following drug washout; format: cell-based, Schistosoma mansoni; conditions: 14 hours treatment, recovery 3 hours, 1 day after washout
# Protocol: Female Swiss Webster mice infected with S. mansoni cercariae (NMRI strain) were sacrificed 49 days post infection by CO2 euthanasia. Adult schistosomes were recovered by dissection of the mesenteric vasculature. Harvested schistosomes were washed in DMEM (ThermoFisher cat. # 11995123) supplemented with HEPES (25mM), 5% v/v heat inactivated FCS (Sigma Aldrich cat. # 12133C) and Penicillin-Streptomycin (100 units/mL). Worms were cultured in 6 well dishes (4–5 male worms in 3mL media per well) in the presence of various test compounds or DMSO vehicle control overnight (37°C / 5% CO2). Worms were imaged the next day to record movement phenotypes using a Zeiss Discovery v20 stereomicroscope and a QiCAM 12-bit cooled color CCD camera controlled by Metamorph imaging software (version 7.8.1.0). 1 minute recordings were acquired at 4 frames per second and saved as a .TIFF stack, which was imported into ImageJ for analysis. An outline of the workflow used to quantify movement from these video recordings is shown in S1 Fig. Maximum intensity projections were generated for the entire stack of images (241 frames for a 1-minute recording) and integrated pixel values were measured for the resulting composite image, allowing normalization of movement relative to DMSO control treated worms. Inhibition of movement IC50 values were calculated using GraphPad Prism v8.1.1 and are expressed ± 95% confidence intervals. Data represents mean ± standard error for ≥3 independent experiments. Significance (*) was determined by unpaired t-test at a threshold of 0.05.
# as §1
# schistosomes = tested on: schistosomes; parameters: method as in PMID 380021; conditions: human clinical trials; cited from earlier work
# schistosomiasis = tested on: schistosomiasis; parameters: method as in PMID 21695161, PMID 28619227; conditions: PZQ treatment; cited from earlier work
# [6] = inactive compounds tested at concentrations as high as 50 μM
smiles,measurement,setting,value
"O=C1CN=C(c2ccccc2Cl)c2cc([N+](=O)[O-])ccc2N1 [CLZ, clonazepam, reference compound]",Decrease in potency relative to MCLZ (loss of C3 methyl group),adult male S. mansoni [1]; Fig 3,> 3 log
same,IC50,adult male S. mansoni [1]; [6],1900 nM
same,Ki,[2],0.82 nM
C[C@H]1N=C(c2ccccc2F)c2cc(C#C[Si](C)(C)C)ccc2NC1=O [GL-I-61],Worms showing curl phenotype,adult male S. mansoni [3]; 10 micromolar,3/8 curling at 10 micromolar
O=C1CN=C(c2ccc(Cl)cc2)c2cc(Cl)ccc2N1 [GL-I-74],Worms showing curl phenotype,adult male S. mansoni [3]; 10 micromolar,1/8 curl at 10 micromolar
CCOC(=O)c1ncn2c1[C@H](C)N=C(c1ccccc1F)c1cc(C3CC3)ccc1-2 [GL-I-78],"Potency at evoking coiled, contractile paralysis / activity against parasites (in words)",adult male S. mansoni [1],dramatically decreased affinity
same,Worms showing curl phenotype,adult male S. mansoni [3]; 10 micromolar,Inactive (0/8 curl) at 10 micromolar
C[C@H]1N=C(c2ccccc2F)c2cc(Br)ccc2-n2cnc(-c3cnco3)c21 [GL-III-36],Worms showing curl phenotype,adult male S. mansoni [3]; 10 micromolar,inactive (0/8 curling) at 10 micromolar
C[C@H]1N=C(c2ccccc2F)c2cc(C#C[Si](C)(C)C)ccc2-n2cnc(-c3cnco3)c21 [GL-III-72],Worms showing curl phenotype,adult male S. mansoni [3]; 10 micromolar,5/8 curl at 10 micromolar
Brc1ccc2c(c1)C(c1ccccc1)=NCc1c(-c3cnco3)ncn1-2 [KRM-II-73],Worms showing curl phenotype,adult male S. mansoni [3]; 10 micromolar,2/8 curl at 10 micromolar
Cc1ncoc1-c1ncn2c1CN=C(c1ccccc1)c1cc(Br)ccc1-2 [KRM-III-66],Worms showing curl phenotype,adult male S. mansoni [3]; 10 micromolar,6/8 curl at 10 micromolar
C#Cc1ccc2c(c1)C(c1ccccn1)=NCc1c(-c3ocnc3C)ncn1-2 [KRM-III-79],Worms showing curl phenotype,adult male S. mansoni [3]; 10 micromolar,5/8 curl at 10 micromolar
"C[C@@H]1N=C(c2ccccc2Cl)c2cc([N+](=O)[O-])ccc2NC1=O [MCLZ, meclonazepam]",IC50,adult male S. mansoni [1],160 nM
same,Activity against S. japonicum,S. japonicum,inactive
same,Ki,[2],2.4 nM
same,Bioavailability,[4]; MCLZ,orally bioavailable
same,Half-life,[4]; MCLZ,up to 80 hours
same,Tegument ultrastructure (TEM),"S. mansoni tegument; 5 μM, overnight",pervasive vacuolization of the tegument
same,Activity against SmGluCl,SmGluCl,inactive
same,Dose at which sedation was reported,[5],above 0.3 mg/kg
same,Recovery of movement following drug washout,S. mansoni; MCLZ,do not recover movement
same,Effective anti-parasitic dose,schistosomes,0.2 to 0.3 mg/kg
C[C@@H]1N=C(c2ccccc2)c2cc([N+](=O)[O-])ccc2NC1=O [MYM-I-88],IC50,adult male S. mansoni [1]; [6],26000 nM
same,Ki,[2],76.4 nM
C[C@@H]1N=C(c2ccccc2F)c2cc([N+](=O)[O-])ccc2NC1=O [MYM-I-91A],IC50,adult male S. mansoni [1]; [6],7200 nM
same,Ki,[2],12.1 nM
C[C@@H]1N=C(c2ccccc2Cl)c2cc([N+](=O)[O-])ccc2N(C)C1=O [MYM-II-53],IC50,adult male S. mansoni [1]; [6],> 50000 nM
same,Ki,[2],4.1 nM
"O=C(C1CCCCC1)N1CC(=O)N2CCc3ccccc3C2C1 (centres unmarked) [PZQ, praziquantel]",Cure rates,schistosomiasis,70–90%
C#Cc1ccc2c(c1)C(c1ccccc1F)=N[C@@H](C)c1c(C(=O)OCC)ncn1-2 [SH-053-2’F-S-CH3],"Potency at evoking coiled, contractile paralysis / activity against parasites (in words)",adult male S. mansoni [1],dramatically decreased affinity
CCOC(=O)c1ncn2c1[C@H](C)N=C(c1ccccc1F)c1cc(Br)ccc1-2 [SH-I-48B],"Potency at evoking coiled, contractile paralysis / activity against parasites (in words)",adult male S. mansoni [1],dramatically decreased affinity
same,Activity (curl phenotype),adult male S. mansoni [3]; up to 100 micromolar,Inactive up to 100 micromolar
CCOC(=O)c1ncn2c1[C@H](C)N=C(c1ccccc1F)c1cc(C#C[Si](C)(C)C)ccc1-2 [SH-I-055],IC50,adult male S. mansoni [1]; [6],1400 nM
same,Times less potent than XliHeII-048,adult male S. mansoni [1]; movement IC50 comparison,~ 3 times
same,Ki,[2],1700 nM
same,Tegument ultrastructure (TEM),"S. mansoni tegument; 10 μM, overnight (14 hours)",normal tissue ultrastructure
same,Recovery of movement following drug washout,S. mansoni; 10 μM,recovering by 1 day after drug washout
same,Worms showing curl phenotype,adult male S. mansoni [3]; 5 micromolar,4/8
same,Worms showing curl phenotype,adult male S. mansoni [3]; 10 micromolar,8/8
CCOC(=O)c1ncn2c1[C@@H](C)N=C(c1ccccc1F)c1cc(C#C[Si](C)(C)C)ccc1-2 [SH-I-060],"Potency at evoking coiled, contractile paralysis / activity against parasites (in words)",adult male S. mansoni [1],marked decrease in potency; also recorded: essentially inactive
CCOC(=O)c1ncn2c1CN=C(c1ccccc1)c1cc(C#C[Si](C)(C)C)ccc1-2 [Xhe-II-048],IC50,adult male S. mansoni [1],850 nM
same,Ki,[2],2500 nM
same,Tegument ultrastructure (TEM),"S. mansoni tegument; 10 μM, overnight (14 hours)",extensive vacuole distribution beneath the apical membrane
same,Recovery of movement following drug washout,S. mansoni; 10 μM,did not recover movement up to one day
CCOC(=O)c1ncn2c1CN=C(c1ccccc1F)c1cc(C#C[Si](C)(C)C)ccc1-2 [XliHeII-048],IC50,adult male S. mansoni [1],540 nM
same,Ki,[2],1600 nM
same,Tegument ultrastructure (TEM),"S. mansoni tegument; 10 μM, overnight (14 hours)",normal tissue ultrastructure
same,Recovery of movement following drug washout,S. mansoni; 10 μM,recovering by 1 day after drug washout
same,Worms showing curl phenotype,adult male S. mansoni [3]; 10 micromolar,5/5
CCOC(=O)c1ncn2c1CN(C)C(=O)c1cc(F)ccc1-2 [flumazenil],Elimination half-life,"[4]; flumazenil, administered by IV",< 1 h
same,Bioavailability,[4]; flumazenil,poor bioavailability
"O=C1CN=C(c2ccccc2)c2cc([N+](=O)[O-])ccc2N1 [nitrazepam, reference compound]",IC50,adult male S. mansoni [1]; [6],> 50000 nM
same,"Potency at evoking coiled, contractile paralysis / activity against parasites (in words)",adult male S. mansoni [1],inactive against parasites
